Values of other authors, collected in patent publication US6761879B1, “Titanium derived compounds, preparation and use thereof” (Sanofi-Synthelabo, priority 1999, dated 2004).

Tests used:
[1] = known from prior art
[2] = in particular in aqueous solution

For [F][Ti]([F])([F])[F] [titanium tetrafluoride], the “formation of an amorphous protective layer (glaze) at the surface of the enamel of the tooth” value [1] is listed as “forming an amorphous protective layer”, the “pH in aqueous solution” value is listed as “about 1.5” and the stability [2] is listed as “relatively unstable”.
